According to patent publication US20250283048A1, “PLATELET-ACTIVATING FACTOR BLOCKADE INHIBITS TUMOR GROWTH” (The Johns Hopkins University, priority 2022, published 2025):

Columns and labels:
[1] = system: TP53/CDKN2A^KO GEJ organoids; experiment: Average organoid size by phase-contrast imaging; assay type: cell-based, human; conditions: WEB2086 at various concentrations vs vehicle control (0.1% DMSO)
Excerpt: (FIG. 4A) mRNA levels of PTAFR in TP53/CDKN2A^KO vs. control GEJ organoids (left) and normal GEJ vs. EAC tissues. (FIG. 4B) Knockdown of PTAFR mRNA by siRNAs in TP53/CDKN2A^KO GEJ organoids. (FIG. 4C) Average organoid size and (E) cell viability determined by phase-contrast imaging and WST1 assays, respectively. (FIG. 4D) Ki67 labeling images and (FIG. 4E) quantification obtained on Day 7. *P<0.05 vs. same-day siCtrl. Scale bar=100 μm. (FIG. 4F-FIG. 4H) Average organoid size and cell viability (H) determined by phase-contrast imaging and WST1 assays, respectively. (FIG. 4G and FIG. 4H) Ki67 labeling images and quantification obtained on Day 10. Scale bar=100 μm. *P<0.05 vs Ctrl-DMSO on the same day; +, P<0.05 vs. WEB 10 μM on the same day; #P<0.05 vs. WEB 15 μM on the same day;
GEJ organoids were established as described in FIG. 1A. Briefly, fresh endoscopic GEJ biopsies were preserved in ice-cold conditioned PBS (PBS containing 10 μM ROCK inhibitor Y27632, 2% (vol/vol) penicillin/streptomycin, and 1× Primocin) until further processing within 24 hours. After washing biopsies with conditioned PBS at least 5 times, samples were minced into fragments <1 mm^3 using microdissecting scissors. […]
Following centrifugation at 400 g at 4° C. for 3 minutes, pelleted cell clusters were resuspended in Matrigel. […] Culture medium was changed once every three days until the organoids were ready to passage.

[2] = system: TP53/CDKN2A^KO GEJ organoids; experiment: Organoid viability assay (WST-1 assay); assay type: cell-based, human
Method: To quantify metabolically active viable cells, organoids were seeded onto 96-well plates and cultured. At indicated time points, 10 μL per well of Cell Proliferation Reagent WST-1 assay kits were added to the 96-well plates and incubated with organoids for 90 minutes. After incubation, only media was transferred to the wells of a new 96-well plate, which was read at an absorbance of 450 nm by a Thermo Scientific Microplate Reader. All experiments were performed in triplicate.

[3] = molecular target: TP53/CDKN2A^KO GEJ organoids; experiment: Ki67 immunofluorescence labeling index; assay type: cell-based, human; conditions: WEB2086 at various concentrations vs vehicle control (0.1% DMSO); Day 10
Method: (§1) Organoid cultures and tissues were fixed overnight in 10% formalin at room temperature. Paraffin-embedded organoids and tissues were serially sectioned into 10-μm slices. Paraffin sections were deparaffinized, rehydrated, followed by either staining for hematoxylin and eosin (H&E), or antigen retrieval in sub-boiling 10-mM sodium citrate buffer pH 6.0 for 10 mins. For immunofluorescence (IF), slides were permeabilized in 0.5% TritonX-100 in PBS and blocked in 1% goat serum in PBS for 30 mins at room temperature. After blocking, slides were incubated with anti-Ki67 (1:200, Abcam) overnight in a humidified chamber at 4° C. Sections were washed by PBST (3 times for 5 mins each) and incubated with Alexa Fluor secondary antibodies (1:500) for 1 hr. After washing with PBST, slides were mounted with Fluoroshied with DAPI (Sigma).

[4] = system: TP53/CDKN2A^KO GEJ organoids xenograft; experiment: Xenotransplantation of TP53/CDKN2A^KO organoid cells in nude mice; assay type: in vivo; conditions: 5 mg/kg.d intraperitoneal every two days for 3 weeks; 3-month observation; vs 1.25% DMSO
Method: (§2) All procedures and experimental protocols involving mice were approved by the Animal Experimental Committee of the Johns Hopkins University School of Medicine. For xenotransplantation of organoids, 2×10^6 organoid cells or ESO26 cells resuspended in cold 50% Matrigel were injected into the axillary of nude mice. For the WEB2086 treatment assay, 5 mg/kg.d of WEB2086 or vehicle control (1.25% DMSO in PBS) was administered by intraperitoneal injection every two days for 3 weeks. Xenograft size was measured twice a week. The xenograft volume (V) was monitored by measuring the length (L) and width (W) with a caliper based on the formula V=1/2×(L×W^2). Mice were sacrificed at the end of the experiment, and xenografts were excised for further analyses.

[5] = system: Eso26 xenograft; experiment: Eso26 EAC cell line xenograft in nude mice; assay type: in vivo
Method: as §1
Immunohistochemistry was performed using the automated Bond-Max autostainer by Leica for the following antibodies: AE1/AE3 (1:200, Santa Cruz). Images were acquired with a Lecia Inverted Confocal SP8 (Johns Hopkins Medicine Ross Imaging Center). Reagents used here are listed in the Key Resources Table.
as §2

[6] = WEB2086 5 mg/kg.d intraperitoneal every two days for 3 weeks vs vehicle

For `Cc1nnc2n1-c1sc(CCC(=O)N3CCOCC3)cc1C(c1ccccc1Cl)=NC2` [WEB2086], the organoid size [1] was “significantly reduced”, the “metabolically active cells (WST-1), onset of decrease” value ([2]; WEB2086 at various concentrations vs 0.1% DMSO) was “began to decrease on day 4” and the “inhibitory effect on metabolically active cells (WST-1)” value ([2]; WEB2086 at various concentrations, day 7 and 10) was “time- and dose-dependent inhibitory effect”. For the same compound, the Ki-67 labeling index [3] was “significantly reduced”, the tumor formation [4] was “completely prevented tumor formation” and the EAC xenograft growth [5, 6] was “significant suppression”. The EAC xenograft weight [5, 6] was “significant suppression” and the “Ki67 expression in tumor xenografts (IHC)” value ([5]; WEB2086 treated Eso26 tumor xenografts) was “downregulated expression”.
